# Non-standard residues stand in square brackets, D forms with d. Residues, ends and D or L forms follow the SMILES beside them. Aib = CC(C)(N)C(=O)O
# Key:
# [1] = test system: MCF-7 MIII human breast cancer cell line xenografts; details: MCF-7 MIII xenografts, female athymic nude mice, after 2 weeks of treatment, alone or in combination with SB-75; cited from earlier work
# [2] = test system: human gastric cancer cell line Hs746T xenografts; details: nude mice bearing Hs746T xenografts; cited from earlier work
# SCLC xenograft = details: in vivo; cited from earlier work
# intact SCLC cells = details: 37° C., RPMI medium, 0–1080 minutes; cited from earlier work
# PTC (colon) = assay: two day MTT cytotoxicity assay (Example 12); type: cell-based, human; details: 48 hrs
# Method: (§1) The cytoxicity of the peptide analog was carried out by two day MTT [3-(4,5-dimethylthiazol-2-yl)-2,5-diphenyl tetrazolium bromide]assay. MTT assay is based on the principle of uptake of MTT, a tetrazolium salt, by metabolically active cells where it is metabolized by active mitochondria into a blue colored formazon product, which can be read spectrometrically (J. of Immunological Methods 65: 55–63, 1983). To prepare the MTT stock solution needed, MTT was dissolved in phosphate buffered saline with a pH of 7.4 to obtain an MTT concentration of 5 mg/ml; the resulting mixture was filtered through a 0.22 micron filter to sterilize and remove a small amount of insoluble residue. This filtered mixture was the MTT stock solution.
# (§2) Briefly, for each tumor type, 10,000 cells were seeded in 96-well tissue culture plate and incubated with each peptide concentration individually in a CO2 incubator for 48 hrs. The peptide analog at different concentrations was added once every 24 hrs during the incubation period. Control cultures, which were not treated with the peptide was similarly incubated. The assay was terminated by adding 100 μg (20 μl) of MTT to each well, incubating for three hours, decanting supernatant and finally adding 150 μl of dimethylsulphoxide to each well to dissolve the formazon. The plates were incubated for 15 minutes at 37° C. and read spectrophotometrically at 540 nm; and cytotoxicity percentage was calculated by following formula: • Cytotoxicity Percentage=100×[1−X/R1], • where X=(absorbance of the treated sample at 540 nm-absorbance of a blank at 540 nn) and • R1=(absorbance of the untreated control at 540 nm)—(absorbance of the blank at 540 nm).
# (§3) Thus in each of the MTT cytotoxicity assay the percentage was calculated according to the above formula and was based on the proliferation of the untreated controls, the value of which was considered as 100°0.
# (§4) The biological activity of synthesized peptide SEQ ID NO:3 was tested on different human tumor cell lines such as HT-29 & PTC (colon), A549 (non small lung cell), KB (oral squamous cell), MCF7 & MDA.MB.453 (Breast), HuTu80 (duodenum), PA-1 (ovary), MOLT-4 (leukemia) and MlAPaCa2 (Pancreas) at various molar concentrations.
# PA-1 (ovary) = assay: two day MTT cytotoxicity assay (Example 12); type: cell-based, human
# Method: as §1, §2, §3, §4
# [3] = test system: A549 (non small lung cell); assay: two day MTT cytotoxicity assay (Example 12); type: cell-based, human
# Method: as §1, §2, §3, §4
# MOLT-4 (leukemia) = assay: two day MTT cytotoxicity assay (Example 12); type: cell-based, human
# Method: as §1, §2, §3, §4
# MlAPaCa2 (Pancreas) = assay: two day MTT cytotoxicity assay (Example 12); type: cell-based, human
# Method: as §1, §2, §3, §4
# MCF7 (Breast) = assay: two day MTT cytotoxicity assay (Example 12); type: cell-based, human
# Method: as §1, §2, §3, §4
# HT-29 (colon) = assay: two day MTT cytotoxicity assay (Example 12); type: cell-based, human
# Method: as §1, §2, §3, §4
# MDA.MB.453 (Breast) = assay: two day MTT cytotoxicity assay (Example 12); type: cell-based, human
# Method: as §1, §2, §3, §4
# KB (oral squamous cell) = assay: two day MTT cytotoxicity assay (Example 12); type: cell-based, human; details: 48 hrs
# Method: as §1, §2, §3, §4
# HuTu80 (duodenum) = assay: two day MTT cytotoxicity assay (Example 12); type: cell-based, human
# Method: as §1, §2, §3, §4
compound,measurement,setting,value
"(DTpi6, Leu3, psi[CH2NH]—Leu14) bombesin (6–14) [RC-3095]",tumor volume,[1],significant inhibition of tumor volume
same,tumor growth,[2],effectively inhibited tumor growth
"[Psi 13, 14] Bombesin",SCLC xenograft formation,SCLC xenograft,inhibited SCLC xenograft formation in vivo in a dose-dependent manner
same,TI/2 (stability to metabolic enzymes),intact SCLC cells,646 min
"CC(C)C[C@H](NC(=O)[C@H](Cc1c[nH]cn1)NC(=O)C(C)(C)NC(=O)[C@@H](NC(=O)[C@H](C)NC(=O)[C@H](Cc1c[nH]c2ccccc12)NC(=O)[C@H](CCC(N)=O)NC(=O)[C@H](N)Cc1ccccc1)C(C)C)C(N)=O [SEQ ID NO: 3, D-Phe-Gln-Trp-Ala-Val-Aib-His-Leu-NH2] (H-[dF]QWAV[Aib]HL-NH2; N-terminus assumed)",Percentage cytotoxicity,PTC (colon); 10 pM,80.0 ± 7.1%
same,Percentage cytotoxicity,PTC (colon); 100 pM,26.5 ± 3.8%
same,Percentage cytotoxicity,PTC (colon); 10 nM,27.7 ± 3.6%
same,Percentage cytotoxicity,PTC (colon); 100 nM,27.7 ± 2.8%
same,Percentage cytotoxicity,PTC (colon); 1 μM,17.9 ± 2.5%
same,Percentage cytotoxicity,PTC (colon),23.8 ± 2.8%
same,Percentage cytotoxicity,"PA-1 (ovary); PA-1, 10 pM, 48 hrs",37.7 ± 3.9%
same,Percentage cytotoxicity,"PA-1 (ovary); PA-1, 100 pM, 48 hrs",40.1 ± 6.2%
same,Percentage cytotoxicity,"PA-1 (ovary); PA-1, 10 nM, 48 hrs",25.4 ± 4.2%
same,Percentage cytotoxicity,"PA-1 (ovary); PA-1, 100 nM, 48 hrs",34.2 ± 5.8%
same,Percentage cytotoxicity,"PA-1 (ovary); PA-1, 1 μM, 48 hrs",31.2 ± 5.1%
same,Percentage cytotoxicity,"PA-1 (ovary); PA-1, 48 hrs",36.1 ± 6.1%
same,Percentage cytotoxicity,"[3]; A549, 10 pM, 48 hrs",30.5 ± 3.5%
same,Percentage cytotoxicity,"[3]; A549, 100 pM, 48 hrs",25.2 ± 3.5%
same,Percentage cytotoxicity,"[3]; A549, 10 nM, 48 hrs",32.2 ± 5.5%
same,Percentage cytotoxicity,"[3]; A549, 100 nM, 48 hrs",23.6 ± 4.5%
same,Percentage cytotoxicity,"[3]; A549, 1 μM, 48 hrs",30.7 ± 6.5%
same,Percentage cytotoxicity,"[3]; A549, 48 hrs",32.4 ± 4.5%
same,Percentage cytotoxicity,"MOLT-4 (leukemia); MOLT-4, 10 pM, 48 hrs",49.9 ± 4.1%
same,Percentage cytotoxicity,"MOLT-4 (leukemia); MOLT-4, 100 pM, 48 hrs",15.9 ± 3.0%
same,Percentage cytotoxicity,"MOLT-4 (leukemia); MOLT-4, 10 nM, 48 hrs",Nil
same,Percentage cytotoxicity,"MOLT-4 (leukemia); MOLT-4, 100 nM, 48 hrs",1.4 ± 1.0%
same,Percentage cytotoxicity,"MOLT-4 (leukemia); MOLT-4, 1 μM, 48 hrs",9.0 ± 1.2%
same,Percentage cytotoxicity,"MOLT-4 (leukemia); MOLT-4, 48 hrs",1.0 ± 0.4%
same,Percentage cytotoxicity,"MlAPaCa2 (Pancreas); MIAPaCa2, 10 pM, 48 hrs",27.4 ± 4.5%
same,Percentage cytotoxicity,"MlAPaCa2 (Pancreas); MIAPaCa2, 100 pM, 48 hrs",28.2 ± 4.5%
same,Percentage cytotoxicity,"MlAPaCa2 (Pancreas); MIAPaCa2, 10 nM, 48 hrs",33.2 ± 6.7%
same,Percentage cytotoxicity,"MlAPaCa2 (Pancreas); MIAPaCa2, 100 nM, 48 hrs",30.3 ± 4.2%
same,Percentage cytotoxicity,"MlAPaCa2 (Pancreas); MIAPaCa2, 1 μM, 48 hrs",33.3 ± 4.5%
same,Percentage cytotoxicity,"MlAPaCa2 (Pancreas); MIAPaCa2, 48 hrs",36.4 ± 0.5%
same,Percentage cytotoxicity,"MCF7 (Breast); MCF 7, 10 pM, 48 hrs",39.33 ± 2.6%
same,Percentage cytotoxicity,"MCF7 (Breast); MCF 7, 100 pM, 48 hrs",38.95 ± 4.5%
same,Percentage cytotoxicity,"MCF7 (Breast); MCF 7, 10 nM, 48 hrs",24.35 ± 5%
same,Percentage cytotoxicity,"MCF7 (Breast); MCF 7, 100 nM, 48 hrs",Nil
same,Percentage cytotoxicity,"MCF7 (Breast); MCF 7, 1 μM, 48 hrs",Nil
same,Percentage cytotoxicity,"MCF7 (Breast); MCF 7, 48 hrs",30.68 ± 6%
same,Percentage cytotoxicity,"HT-29 (colon); HT29, 10 pM, 48 hrs",18.7 ± 4.5%
same,Percentage cytotoxicity,"HT-29 (colon); HT29, 100 pM, 48 hrs",19.9 ± 5.5%
same,Percentage cytotoxicity,"HT-29 (colon); HT29, 10 nM, 48 hrs",11.8 ± 5.0%
same,Percentage cytotoxicity,"HT-29 (colon); HT29, 100 nM, 48 hrs",17.8 ± 4.5%
same,Percentage cytotoxicity,"HT-29 (colon); HT29, 1 μM, 48 hrs",25.4 ± 5.5%
same,Percentage cytotoxicity,"HT-29 (colon); HT29, 48 hrs",20.3 ± 4.5%
same,Percentage cytotoxicity,"MDA.MB.453 (Breast); MDA.MB.453, 10 pM, 48 hrs",49.5 ± 4.2%
same,Percentage cytotoxicity,"MDA.MB.453 (Breast); MDA.MB.453, 100 pM, 48 hrs",25.5 ± 2.9%
same,Percentage cytotoxicity,"MDA.MB.453 (Breast); MDA.MB.453, 10 nM, 48 hrs",Nil
same,Percentage cytotoxicity,"MDA.MB.453 (Breast); MDA.MB.453, 100 nM, 48 hrs",11.2 ± 3.1%
same,Percentage cytotoxicity,"MDA.MB.453 (Breast); MDA.MB.453, 1 μM, 48 hrs",5.6 ± 3.5%
same,Percentage cytotoxicity,"MDA.MB.453 (Breast); MDA.MB.453, 48 hrs",9.6 ± 1.9%
same,Percentage cytotoxicity,KB (oral squamous cell); 10 pM,40.9 ± 5.5%
same,Percentage cytotoxicity,KB (oral squamous cell); 100 pM,26.4 ± 4.5%
same,Percentage cytotoxicity,KB (oral squamous cell); 10 nM,30.9 ± 5.5%
same,Percentage cytotoxicity,KB (oral squamous cell); 100 nM,31.6 ± 6.5%
same,Percentage cytotoxicity,KB (oral squamous cell); 1 μM,32.1 ± 5.0%
same,Percentage cytotoxicity,KB (oral squamous cell),30.4 ± 6.5%
same,Percentage cytotoxicity,"HuTu80 (duodenum); HuTu80, 10 pM, 48 hrs",10.3 ± 3.5%
same,Percentage cytotoxicity,"HuTu80 (duodenum); HuTu80, 100 pM, 48 hrs",14.7 ± 4.2%
same,Percentage cytotoxicity,"HuTu80 (duodenum); HuTu80, 10 nM, 48 hrs",14.3 ± 3.5%
same,Percentage cytotoxicity,"HuTu80 (duodenum); HuTu80, 100 nM, 48 hrs",15.5 ± 4.7%
same,Percentage cytotoxicity,"HuTu80 (duodenum); HuTu80, 1 μM, 48 hrs",12.2 ± 4.0%
same,Percentage cytotoxicity,"HuTu80 (duodenum); HuTu80, 48 hrs",13.3 ± 4.0%

# — patent US6989371B1, “Bombesin analogs for treatment of cancer” (Dabur Research Foundation, priority 1996, dated 2006)
